Assay results taken from patent publication US6495715B2, “Calcium channel blockers” (Warner-Lambert Company, priority 1997, dated 2002).
pIC50: −log10 of the molar value. Counter-ions that a name gives are not always drawn.

Key:
N-type Ca2+ channel = target: T1, N-type Ca2+ channel (Homo sapiens, UniProt Q00975); assay: Measurement of N-type Ca2+ channel blocking potencies in IMR-32 cells using the fluorescent Ca2+ indicator Indo-1; assay type: cell-based; details: for pIC50: K+-stimulated Ca2+ flux, 5 μM nitrendipine to block L-type channels; for inhibition at 1 µM: 1 μM compound, read-out: IMR 32 % of Blockade @ 1 μM; for inhibition at 1 µM / inhibition at 10 µM: 5 μM nitrendipine; for inhibition at 10 µM: 10 μM compound, read-out: IMR 32 % of Blockade @ 10 μM
T1 construct: host or cells: IMR-32 cells, differentiated with dibutyryl cAMP and bromodeoxyuridine
Protocol: Measurement of N-type Ca^2+ Channel Blocking Potencies of Compounds in IMR-32 Cells Using the Fluorescent Ca^2+Indicator Indo-1
IMR-32 cells are a human tumoral cell line of neural origin. […] Calcium flux into these cells may be induced by stimulation with elevated potassium concentrations. The L-channel component of calcium flux may be blocked by adding 5 μM nitrendipine. The remaining component of calcium entry into the IMR-32 cells is due to calcium flux through N-type calcium channels. Intracellular calcium concentrations are measured using the fluorescent calcium indicator Indo-1. The effect of drug concentration on calcium uptake is studied.
The IMR-32 cell line was obtained from the American Type Culture Collection (Rockville, Md.). Cells were grown in Eagle's Minimum Essential Medium with Earle's salts supplemented with 10% fetal bovine serum, 2 mM L-Gln and antibiotic/antimycotic mixture (Gibco). […] After 7 to 13 days of differentiation, cells were detached using 0.5 mM EDTA and loaded with 5 μM Indo-1 acetoxymethyl ester (Molecular Probes, Eugene, Oreg.) at 30° C. for 45 minutes. Loaded cells were washed twice, resuspended (˜10^7 cells/mL) in assay buffer (10 mM HEPES/Tris pH 7.4 in Hank's Balanced Salt Solution without bicarbonate or phenol red containing 0.5% bovine serum albumin) and kept on ice until use. Fluorescence measurements were carried out in a Photon Technology International (PTI, South Brunswick, N.J.) Model RF-F3004 spectrofluorometer with dual emission monochromators using excitation at […] and emission at 400 and 490 nm. The instrument was equipped with a thermostated cuvette holder with stirring capabilities as well as with a computer-controlled pump which allowed for reagent addition during measurement. Instrument control and data collection was done by PTI's OSCAR software running on an IBM compatible computer. Different concentrations of the test compounds (60 μL in dimethyl sulfoxide) were added to 5.94 mL of assay buffer containing approximately 3×10^6 loaded cells, and 5 μM Nitrendipine (in […] EtOH) to block L-type Ca^2+ channels. Samples were incubated for 10 minutes at 30° C. and then aliquoted into three 10×10 mm disposable acrylic cuvettes. Emission signals at 400 and 490 nm were acquired from each cuvette at 30° C. for 50 seconds. At 20 seconds after the start of reading, cells were depolarized by the addition of 160 μL of stimulation solution (1 M KCl, 68 mM CaCl2) to the cuvette via the computer-controlled pump. Ratio of dual emission signals (400 nm/490 nm), which is proportional to intracellular Ca^2+ concentration, was plotted against time, and the difference between maximal response after stimulation and basal value (before stimulation) was determined. Values obtained in this way were plotted as a function of drug concentration. IC50 values of test compounds were calculated by fitting a four-parameter logistic function to the data using the least squares method.

DBA/2 mice = assay: Audiogenic seizure (anticonvulsant) test in DBA/2 mice; assay type: in vivo; details: Mus musculus, intravenous, sound-induced tonic seizures, tested 15 or 45 minutes after injection, read-out: DBA/2 mice % Protection
Protocol: In vivo Biological Protocol:
A compound of the present invention was dissolved in water using 10% (weight/volume) Emulphor (GAF Corp., Wayne, N.J.) surfactant. Substances were administered by intravenous injection into the retro-orbital venous sinus. All testing was performed 15 minutes or 45 minutes after drug injection. All the male mice, 3-4 weeks old were obtained from Jackson Laboratories Bar Harbour, Me. Immediately before anticonvulsant testing, mice were placed upon a wire mesh, 4 inches square suspended from a steel rod. The square was slowly inverted through 180 degrees and mice observed for 30 seconds. Any mouse falling from the wire mesh was scored as ataxia.
Mice were placed into an enclosed acrylic plastic chamber (21 cm height, approximately 30 cm diameter) with a high-frequency speaker (4 cm diameter) in the center of the top lid. An audio signal generator (Protek model B-810) was used to produce a continuous sinusoidal tone that was swept linearly in frequency between 8 kHz and 16 kHz once each 10 msec. The average sound pressure level (SPL) during stimulation was approximately 100 dB at the floor of the chamber. Mice were placed within the chamber and allowed to acclimatize for 1 minute. DBA/2 mice in the vehicle-treated group responded to the sound stimulus (applied until tonic extension occurred, or for a maximum of 60 sec) with a characteristic seizure sequence consisting of wild running followed by clonic seizures, and later by tonic extension, and finally by respiratory arrest and death in 80% or more of the mice. In vehicle-treated mice, the entire sequence of seizures to respiratory arrest lasts approximately 15-20 seconds.
The incidence of all the seizure phases in the drug-treated and vehicle-treated mice was recorded, and the occurrence of tonic seizures were used for calculating anticonvulsant ED50 values by probit analysis. Mice were used only once for testing at each time and dose point.

T1 sequence (Q00975 whole entry): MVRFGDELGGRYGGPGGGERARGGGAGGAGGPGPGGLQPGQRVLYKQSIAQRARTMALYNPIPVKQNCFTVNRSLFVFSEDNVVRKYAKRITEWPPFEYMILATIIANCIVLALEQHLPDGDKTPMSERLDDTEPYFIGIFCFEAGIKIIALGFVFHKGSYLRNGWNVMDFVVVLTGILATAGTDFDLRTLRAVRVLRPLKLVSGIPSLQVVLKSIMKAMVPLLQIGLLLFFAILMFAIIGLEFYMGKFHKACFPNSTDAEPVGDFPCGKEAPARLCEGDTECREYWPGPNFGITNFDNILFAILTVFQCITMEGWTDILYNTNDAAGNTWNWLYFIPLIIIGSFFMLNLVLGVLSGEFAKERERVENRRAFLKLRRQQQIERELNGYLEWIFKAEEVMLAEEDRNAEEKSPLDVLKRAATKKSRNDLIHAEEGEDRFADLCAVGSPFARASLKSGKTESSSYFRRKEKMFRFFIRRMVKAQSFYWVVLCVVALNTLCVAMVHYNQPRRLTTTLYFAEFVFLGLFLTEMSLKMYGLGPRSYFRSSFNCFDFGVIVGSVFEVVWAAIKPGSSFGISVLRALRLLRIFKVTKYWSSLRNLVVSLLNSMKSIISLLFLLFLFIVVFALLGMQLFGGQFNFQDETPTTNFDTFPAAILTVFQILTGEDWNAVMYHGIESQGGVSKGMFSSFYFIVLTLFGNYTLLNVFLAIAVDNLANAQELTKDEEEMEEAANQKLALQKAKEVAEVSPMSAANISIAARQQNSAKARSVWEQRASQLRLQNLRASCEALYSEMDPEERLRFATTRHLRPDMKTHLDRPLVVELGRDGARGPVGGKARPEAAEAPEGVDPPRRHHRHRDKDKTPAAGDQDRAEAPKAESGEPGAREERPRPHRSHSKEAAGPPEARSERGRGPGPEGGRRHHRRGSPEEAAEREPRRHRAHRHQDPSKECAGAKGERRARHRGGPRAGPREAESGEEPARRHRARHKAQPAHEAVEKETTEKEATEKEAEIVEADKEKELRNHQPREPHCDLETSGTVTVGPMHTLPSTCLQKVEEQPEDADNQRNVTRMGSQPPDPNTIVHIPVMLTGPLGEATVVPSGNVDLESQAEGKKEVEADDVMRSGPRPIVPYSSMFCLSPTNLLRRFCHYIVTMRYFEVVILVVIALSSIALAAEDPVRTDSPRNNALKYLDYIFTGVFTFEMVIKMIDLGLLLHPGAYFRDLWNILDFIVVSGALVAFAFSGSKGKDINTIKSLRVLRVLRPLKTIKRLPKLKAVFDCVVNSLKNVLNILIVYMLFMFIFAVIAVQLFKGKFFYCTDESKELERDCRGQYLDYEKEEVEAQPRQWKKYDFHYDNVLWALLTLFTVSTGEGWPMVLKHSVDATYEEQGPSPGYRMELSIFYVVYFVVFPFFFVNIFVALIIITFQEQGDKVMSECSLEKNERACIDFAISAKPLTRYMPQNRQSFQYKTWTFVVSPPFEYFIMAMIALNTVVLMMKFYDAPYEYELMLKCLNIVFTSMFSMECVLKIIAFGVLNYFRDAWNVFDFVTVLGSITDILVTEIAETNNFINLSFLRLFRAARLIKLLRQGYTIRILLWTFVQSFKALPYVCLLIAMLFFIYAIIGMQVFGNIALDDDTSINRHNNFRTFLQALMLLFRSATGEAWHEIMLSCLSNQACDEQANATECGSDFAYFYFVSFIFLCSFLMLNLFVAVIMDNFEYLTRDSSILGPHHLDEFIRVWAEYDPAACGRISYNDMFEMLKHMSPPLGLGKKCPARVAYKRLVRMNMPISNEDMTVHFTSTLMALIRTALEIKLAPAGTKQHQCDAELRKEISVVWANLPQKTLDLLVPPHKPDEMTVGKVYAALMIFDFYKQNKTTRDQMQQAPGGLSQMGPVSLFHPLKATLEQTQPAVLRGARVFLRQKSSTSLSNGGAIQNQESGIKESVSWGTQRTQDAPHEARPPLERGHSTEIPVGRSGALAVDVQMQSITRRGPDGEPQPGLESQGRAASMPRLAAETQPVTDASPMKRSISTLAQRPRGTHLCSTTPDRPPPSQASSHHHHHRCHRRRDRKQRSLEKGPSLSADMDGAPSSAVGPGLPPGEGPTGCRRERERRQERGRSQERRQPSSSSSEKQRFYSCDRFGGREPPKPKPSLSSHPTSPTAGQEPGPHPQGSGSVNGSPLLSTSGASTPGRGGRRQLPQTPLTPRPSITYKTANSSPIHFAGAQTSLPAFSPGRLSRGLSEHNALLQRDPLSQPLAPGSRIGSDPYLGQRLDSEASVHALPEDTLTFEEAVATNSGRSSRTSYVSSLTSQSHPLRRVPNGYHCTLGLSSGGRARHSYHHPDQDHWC
T1 sequence (P54289 25-956 partner limits assumed): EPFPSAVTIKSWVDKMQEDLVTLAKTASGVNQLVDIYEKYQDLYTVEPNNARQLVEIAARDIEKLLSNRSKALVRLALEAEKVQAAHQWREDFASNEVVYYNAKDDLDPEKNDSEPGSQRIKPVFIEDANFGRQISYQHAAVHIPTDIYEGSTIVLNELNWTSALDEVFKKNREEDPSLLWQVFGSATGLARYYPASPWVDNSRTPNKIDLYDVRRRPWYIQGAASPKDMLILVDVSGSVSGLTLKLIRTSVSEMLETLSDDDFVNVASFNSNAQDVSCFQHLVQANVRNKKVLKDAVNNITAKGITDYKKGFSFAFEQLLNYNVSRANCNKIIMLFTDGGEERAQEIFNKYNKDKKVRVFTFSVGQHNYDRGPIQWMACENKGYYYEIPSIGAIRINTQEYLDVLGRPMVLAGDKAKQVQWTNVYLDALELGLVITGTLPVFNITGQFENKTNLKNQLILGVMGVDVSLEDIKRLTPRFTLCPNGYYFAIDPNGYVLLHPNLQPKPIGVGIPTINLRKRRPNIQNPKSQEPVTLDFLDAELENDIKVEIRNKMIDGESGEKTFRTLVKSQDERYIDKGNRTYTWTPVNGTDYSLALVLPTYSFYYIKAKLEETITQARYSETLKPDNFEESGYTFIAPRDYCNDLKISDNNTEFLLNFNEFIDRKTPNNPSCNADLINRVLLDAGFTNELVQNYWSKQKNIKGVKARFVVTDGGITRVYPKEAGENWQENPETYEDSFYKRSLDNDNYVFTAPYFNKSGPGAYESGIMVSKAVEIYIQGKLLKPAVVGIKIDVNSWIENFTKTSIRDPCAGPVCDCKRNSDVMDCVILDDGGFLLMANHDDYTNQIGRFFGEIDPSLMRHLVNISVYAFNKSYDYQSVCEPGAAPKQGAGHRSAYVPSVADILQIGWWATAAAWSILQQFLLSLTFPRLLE
T1 sequence (P54289 957-1103 partner limits assumed): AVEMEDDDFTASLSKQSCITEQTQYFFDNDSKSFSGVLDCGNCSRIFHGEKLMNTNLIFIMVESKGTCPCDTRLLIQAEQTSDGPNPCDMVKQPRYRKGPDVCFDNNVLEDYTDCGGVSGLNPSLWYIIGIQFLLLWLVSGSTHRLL
T1 sequence (Q02641 whole entry partner): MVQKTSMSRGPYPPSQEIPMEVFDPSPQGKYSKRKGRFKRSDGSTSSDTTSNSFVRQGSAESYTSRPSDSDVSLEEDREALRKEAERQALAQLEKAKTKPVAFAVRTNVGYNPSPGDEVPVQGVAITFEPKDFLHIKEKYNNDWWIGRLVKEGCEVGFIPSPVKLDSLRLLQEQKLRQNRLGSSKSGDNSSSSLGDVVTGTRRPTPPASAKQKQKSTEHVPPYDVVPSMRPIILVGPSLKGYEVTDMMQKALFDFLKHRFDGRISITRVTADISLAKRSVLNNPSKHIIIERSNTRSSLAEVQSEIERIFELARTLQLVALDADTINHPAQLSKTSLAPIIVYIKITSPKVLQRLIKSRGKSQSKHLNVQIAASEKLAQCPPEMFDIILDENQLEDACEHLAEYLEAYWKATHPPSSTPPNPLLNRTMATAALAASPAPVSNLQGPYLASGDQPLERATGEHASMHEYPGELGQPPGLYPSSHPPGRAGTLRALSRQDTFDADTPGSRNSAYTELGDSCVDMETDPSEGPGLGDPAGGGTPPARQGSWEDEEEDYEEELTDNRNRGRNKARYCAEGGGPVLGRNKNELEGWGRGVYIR

| Structure (SMILES) | melting point [°C] | pIC50 (N-type Ca2+ channel) | inhibition at 1 µM (N-type Ca2+ channel) [%] | inhibition at 10 µM (N-type Ca2+ channel) [%] | responders at 30 mg/kg (DBA/2 mice) [%] | responders at 10 mg/kg (DBA/2 mice) [%] |
| --- | --- | --- | --- | --- | --- | --- |
| CC(C)=CCN(c1ccc(OCc2ccccc2)cc1)C1CCN(C(=O)[C@H](CC(C)C)NC(=O)N2CCCCCC2)CC1 (as salt: hydrochloride) [Example 5, (S)-Azepane-1-carboxylic acid (1-{4-[(4-benzyloxy-phenyl)-(3-methyl-but-2-enyl)-amino]-piperidine-1-carbonyl}-3-methyl-butyl)-amide hydrochloride salt] | 125 to 126 | – | – | – | – | – |
| CC(C)=CCN(CCNC(=O)[C@H](CC(C)C)NC(=O)N1CCCCCC1)c1ccc(OCc2ccccc2)cc1 [Example 3, (S)-Azepane-1-carboxylic acid (1-{2-[(4-benzyloxy-phenyl)-(3-methyl-but-2-enyl)-amino]-ethylcarbamoyl}-3-methyl-butyl)-amide] | 71 | 6.16 | – | – | – | – |
| CC(C)=CCN(CCCNC(=O)[C@H](CC(C)C)NC(=O)N1CCCCCC1)c1ccc(OCc2ccccc2)cc1 [Example 4, (S)-Azepane-1-carboxylic acid (1-{3-[(4-benzyloxy-phenyl)-(3-methyl-but-2-enyl)-amino]-propylcarbamoyl}-3-methyl-butyl)-amide] | 48 to 52 | 6.12 | – | – | – | – |
| CC(C)C[C@H](NC(=O)N1CCCCCC1)C(=O)NCCN(c1ccc(OCc2ccccc2)cc1)C1C=CCCC1 (stereo partly drawn) [Example 6, (S)-Azepane-1-carboxylic acid (1-{2-[(4-benzyloxy-phenyl)-cyclohex-2-enyl-amino]-ethylcarbamoyl}-3-methyl-butyl)-amide] | 79 to 80 | 6.08 | – | – | – | – |
| CC(C)C[C@H](NC(=O)N1CCCCCC1)C(=O)NCCN(Cc1ccccc1)c1ccc(OCc2ccccc2)cc1 [Example 7, (S)-Azepane-1-carboxylic acid (1-{2-[benzyl-(4-benzyloxy-phenyl)-amino]-ethylcarbamoyl}-3-methyl-butyl)-amide] | 65 to 66 | 5.72 | – | – | – | – |
| CC(C)=CCN(CC(C)(C)NC(=O)[C@H](CC(C)C)N(C)CC=C(C)C)c1ccc(OCc2ccccc2)cc1 [Example 10, (S)-4-Methyl-2-[methyl-(3-methyl-but-2-enyl)-amino]-pentanoic acid {2-[(4-benzyloxy-phenyl)-(3-methyl-but-2-enyl)-amino]-1,1-dimethyl-ethyl}-amide] | – | – | 54 | 82 | 80 | – |
| CC(C)=CCN(c1ccc(OCc2ccccc2)cc1)C1CCN(C(=O)[C@@H](N)CC(C)C)CC1 [Example 20, (S)-2-Amino-1-{4-[(4-benzyloxy-phenyl)-(3-methyl-but-2-enyl)-amino]-piperidin-1-yl}-4-methyl-pentan-1-one] | – | 5.62 | – | – | – | 100 |
| CCC(C)[C@H](N)C(=O)N1CCC(N(CC=C(C)C)c2ccc(OCc3ccccc3)cc2)CC1 (stereo partly drawn) [Example 22, (S)-2-Amino-1-{4-[(4-benzyloxy-phenyl)-(3-methyl-but-2-enyl)-amino]-piperidin-1-yl}-3-methyl-pentan-1-one] | – | – | 39 | 90 | – | 100 |
| CC(C)=CCN(c1ccc(OCc2ccccc2)cc1)C1CCN(C(=O)[C@H](CC(C)C)N(C)C)CC1 [Example 23, (S)-1-{4-[(4-Benzyloxy-phenyl)-(3-methyl-but-2-enyl)-amino]-piperidin-1-yl}-2-dimethylamino-4-methyl-pentan-1-one] | – | 6.19 | – | – | – | 40 |
| CC(C)=CCN(c1ccc(OCc2ccccc2)cc1)C1CCN(C(=O)[C@H](CC(C)C)NCCC(C)C)CC1 [Example 25, (S)-1-{4-[(4-Benzyloxy-phenyl)-(3-methyl-but-2-enyl)-amino]-piperidin-1-yl}-4-methyl-2-(3-methyl-butylamino)-pentan-1-one] | – | 6.32 | – | – | 80 | – |
| CC(C)CC(NC(=O)N1CCCCCC1)C(=O)N1CCC(N(CCC(C)O)c2ccc(OCc3ccccc3)cc2)CC1 (stereo not drawn) [Example 32, Azepane-1-carboxylic acid (1-{4-[(4-benzyloxy-phenyl)-(3-hydroxy-butyl)-amino]-piperidine-1-carbonyl}-3-methyl-butyl)-amide] | – | 5.34 | – | – | 60 | – |
| CC(C)CCN(c1ccc(N)cc1)C1CCN(C(=O)[C@H](CC(C)C)NC(=O)N2CCCCCC2)CC1 [Example 35, (S)-Azepane-1-carboxylic acid (1-{4-[(4-amino-phenyl)-(3-methyl-butyl)-amino]-piperidine-1-carbonyl}-3-methyl-butyl)-amide] | – | 5.66 | – | – | 20 | – |
| CC(C)CCN(c1ccc(NCCC(C)(C)C)cc1)C1CCN(C(=O)[C@H](CC(C)C)NC(=O)N2CCCCCC2)CC1 [Example 36, (S)-Azepane-1-carboxylic acid (1-{4-[[4-(3,3-dimethyl-butylamino)-phenyl]-(3-methyl-butyl)-amino]-piperidine-1-carbonyl}-3-methyl-butyl)-amide] | – | 6.74 | – | – | 80 | – |
| CC(C)CCN(c1ccc(NCCC(C)O)cc1)C1CCN(C(=O)[C@H](CC(C)C)NC(=O)N2CCCCCC2)CC1 (stereo partly drawn) [Example 38, (S)-Azepane-1-carboxylic acid (1-{4-[[4-(3-hydroxy-butylamino)-phenyl]-(3-methyl-butyl)-amino]-piperidine-1-carbonyl}-3-methyl-butyl)-amide] | – | 5.74 | – | – | 60 | – |
| CC(C)CCN(c1ccc(NCc2ccc(N(C)C)cc2)cc1)C1CCN(C(=O)[C@H](CC(C)C)NC(=O)N2CCCCCC2)CC1 [Example 41, (S)-Azepane-1-carboxylic acid (1-{4-[[4-(4-dimethylamino-benzylamino)-phenyl]-(3-methyl-butyl)-amino]-piperidine-1-carbonyl}-3-methyl-butyl)-amide] | – | 6.31 | – | – | 20 | – |
| CC(C)CCN(c1ccc(NCc2ccc(O)cc2)cc1)C1CCN(C(=O)[C@H](CC(C)C)NC(=O)N2CCCCCC2)CC1 [Example 42, (S)-Azepane-1-carboxylic acid (1-{4-[[4-(4-hydroxy-benzylamino)-phenyl]-(3-methyl-butyl)-amino]-piperidine-1-carbonyl}-3-methyl-butyl)-amide] | – | 6.16 | – | – | 20 | – |
| CC(C)CCN(c1ccc(OCc2ccccc2)cc1)C1CCN(C(=O)[C@@H](N)CC(C)C)CC1 [Example 44, (S)-2-Amino-1-{4-[(4-benzyloxy-phenyl)-(3-methyl-butyl)-amino]-piperidin-1-yl}-4-methyl-pentan-1-one] | – | – | 50 | 100 | – | 20 |
| CC(C)=CCN(c1ccc(OCc2ccccc2)cc1)C1CCN(C[C@@H](N)CC(C)C)CC1 [Example 47, (S)-[1-(2-Amino-4-methyl-pentyl)-piperidin-4-yl]-(4-benzyloxy-phenyl)-(3-methyl-but-2-enyl)-amine] | – | – | 44 | 100 | – | 80 |
